Test results: US20220280594A1, “APPLICATION OF POLYPEPTIDE OR DERIVATIVE THEREOF” (CHENGDU HUITAI BIOMEDICINE CO., LTD., priority 2019, published 2022)
Ends that are not written are not given here. PEG = not defined here

Assays:
[1] = system: human pancreatic cancer cells (PANC-1); assay: transwell invasion assay, PANC-1 cells; assay type: cell-based; details: PANC-1 transwell invasion, 10 μM, 24 hours; control group 727 ± 68
Outline: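 Serum-free PANC-1 cells were seeded in matrigel-coated upper chambers with complete medium below. After 4-5 hours at 37° C., peptide was added at 10 μM final. Following 24 hours, invaded cells on the lower membrane surface were fixed, crystal violet-stained, imaged and counted against untreated controls.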

[2] = system: human liver adenocarcinoma cells (SK-HEP-1); assay: transwell invasion assay, SK-HEP-1 cells; assay type: cell-based; details: SK-HEP-1 transwell invasion, 10 μM, 24 hours; control group 767 ± 91
Outline: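 Serum-free SK-HEP-1 cells were seeded in matrigel-coated upper chambers over complete medium. After 4-5 h, peptide was added to the upper chamber at 10 μM final. Following 24 h at 37° C., invaded cells were fixed, crystal violet-stained, imaged and counted.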

[3] = system: human liver adenocarcinoma cells (SK-HEP-1); assay: transwell migration assay, SK-HEP-1 cells; assay type: cell-based; details: SK-HEP-1 transwell migration, 10 μM, 24 hours; control group 1 782 ± 108, control group 2 768 ± 86
Outline: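 SK-HEP-1 cells in serum-free medium seeded in upper transwell chamber (2-3×10^5 cells/mL) over complete medium; after 4-5 h at 37 °C, 5% CO2, peptide added at 10 μM final in upper chamber. After 24 h, migrated cells fixed in methanol, crystal-violet stained, imaged and counted.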

[4] = system: human lung cancer cells (A549) subcutaneous xenograft; assay: lung cancer subcutaneous xenograft animal model, intravenous injection; assay type: in vivo, mice (BALB/c-nu/nu); details: intravenous 60 mg/kg once every other day, 20 days; for Weight of tumor (g) (mean ± SD): control 2.53 ± 0.17; for Volume of tumor (mm^3) (mean ± SD): control 3373.26 ± 581.44
Outline: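 Female BALB/c-nu/nu mice (4-6 weeks) inoculated subcutaneously with ~2×10^6 A549 cells; grouped once tumours exceeded 100 mm^3. Peptides given intravenously at 60 mg/kg for 20 days versus model control. Tumour weight and volume measured at dissection; body weight recorded every other day.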

[5] = system: human pancreatic cancer cells (PANC-1); assay: transwell migration assay, PANC-1 cells; assay type: cell-based; details: PANC-1 transwell migration, 10 μM, 24 hours; control group 360 ± 60
Outline: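 Serum-free PANC-1 cells placed in the upper transwell chamber with complete medium below; after 4-5 h, peptide added to the upper chamber at a final 10 μM. Migration ran 24 h at 37 °C; cells on the membrane underside were methanol-fixed, crystal violet-stained and counted by microscopy.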

Substance | Number of cells (mean ± SD, P), invaded cells [1] | Number of cells (mean ± SD, P), invaded cells [2] | Number of cells (mean ± SD, P), migrated cells [3] | Weight of tumor (g) (mean ± SD) [4] | Volume of tumor (mm^3) (mean ± SD) [4] | Number of cells (mean ± SD, P), migrated cells [5]
N2: SEQ ID NO: 1 with deletion of one amino acid (position 18) at the carboxyl terminal (YRVRFLAKENVTQDAED) | 93 ± 19,**** | 432 ± 47,** | 104 ± 10,**** | 0.6 ± 0.28 | 1297.28 ± 359.77 | 221 ± 35,**
N32: SEQ ID NO: 1 with deletion of positions 1-3, addition of one amino acid and PEG modification at the carboxyl terminal (RFLAKENVTQDAEDNC-{PEG}; reading uncertain) | 251 ± 10,**** | 252 ± 7,**** | 201 ± 13,**** | 0.88 ± 0.38 | 1630.6 ± 424.84 | 219 ± 13,***
N50: SEQ ID NO: 1 with N18R, addition of 2 amino acid at the carboxyl terminal, PEG modification at the amino terminal ({PEG}-YRVRFLAKENVTQDAEDRCT; reading uncertain) | 310 ± 30,*** | 243 ± 46,**** | 192 ± 16,**** | 0.85 ± 0.27 | 1463.11 ± 472.43 | 230 ± 11,**
N27: SEQ ID NO: 1 with addition of one amino acid at the carboxyl terminal and PEG modification at the carboxyl terminal (YRVRFLAKENVTQDAEDNC-{PEG}; reading uncertain) | 242 ± 35,**** | 369 ± 52,*** | 469 ± 56,** | 1.14 ± 0.23 | 1402.37 ± 405.66 | 143 ± 25,***
N18: SEQ ID NO: 1 with addition of one amino acid at the amino terminal and one at the carboxyl terminal (FYRVRFLAKENVTQDAEDNC) | 118 ± 14,**** | 262 ± 21,**** | 96 ± 28,**** | 1.3 ± 0.24 | 1161.51 ± 297.07 | 232 ± 24,*
